22 molecules from patent publication US20240300937A1, “Substituted 6-(Pyrimidin-4-yl)Quinoline Compounds as Cyclin Dependent Kinase Inhibitors” (BeiGene, Ltd., priority 2022, published 2024) can be followed below.

In assay [1] the target is CDK4/Cyclin D1 (Homo sapiens (Human), UniProt P11802). The experiment in a line: CDK4/Cyclin D1 kinase TR-FRET inhibition assay. The note with it: 1 mM ATP, Rb (Ser780)-biotin substrate, read-out: CDK4D1 IC50. It counts as biochemical. The procedure:
(§1) Compounds disclosed herein were tested for inhibition of CDK4/Cyclin D1 or CDK6/Cyclin D3 kinase in an assay based on the time-resolved fluorescence-resonance energy transfer (TR-FRET) methodology. The assay was carried out in 384-well low volume black plates in a reaction mixture containing CDK4/Cyclin D1 or CDK6/Cyclin D3, 1 mM ATP, 0.15 μM Rb (Ser780)-biotin substrate and 0-10 μM compound in buffer containing 50 mM HEPES pH7.0, 0.02% NaN3, 0.01% BSA, 0.1 mM Orthovanadate, 50 mM MgCl2, 1 mM DTT and 0.005% Tween-20. The kinase was incubated with compound for 60 minutes at room temperature and the reaction was initiated by the addition of ATP and Rb (Ser780)-biotin substrate. After reaction at room temperature for 120 minutes, an equal volume of stop/detection solution was added according to the manufacture's instruction (Cisbio Bioassays). The stop/detection solution contained Streptavidin-XL665 and Anti-pRb (Ser780) mAb-Eu Cryptate in Detection buffer (Cisbio Bioassays). Plates were incubated at room temperature for 60 minutes, and the TR-FRET signals (ex337 nm, em665 nm/620 nm) were recorded on a PHERAstar FSX plate reader (BMG Labtech). The inhibition percentage of CDK4/Cyclin D1 or CDK6/Cyclin D3 kinase activity in presence of increasing concentrations of compounds was calculated based on the ratio of fluorescence at 665 nm to that at 620 nm. The IC50 for each compound was derived from fitting the data to the four-parameter logistic equation by Dotmatics.

Assay [2] concerns the target CDK6/Cyclin D3 (Homo sapiens (Human), UniProt Q00534). The assay can be described thus: CDK6/Cyclin D3 kinase TR-FRET inhibition assay. Format: biochemical. The settings on record: 1 mM ATP, Rb (Ser780)-biotin substrate, read-out: CDK6D3 IC50. The procedure: as §1
(In TR-FRET formats the signal depends on donor and acceptor labels being close together.)

CDK4/Cyclin D1, sequence (P11802 whole entry): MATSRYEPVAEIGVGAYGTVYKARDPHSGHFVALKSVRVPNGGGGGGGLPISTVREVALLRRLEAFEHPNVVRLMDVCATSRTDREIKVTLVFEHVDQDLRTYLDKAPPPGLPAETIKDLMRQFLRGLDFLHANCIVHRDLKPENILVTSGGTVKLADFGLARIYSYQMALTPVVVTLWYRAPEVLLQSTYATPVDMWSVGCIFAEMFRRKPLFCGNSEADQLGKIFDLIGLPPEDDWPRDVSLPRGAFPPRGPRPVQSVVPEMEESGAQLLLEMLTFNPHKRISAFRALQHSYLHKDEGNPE
CDK4/Cyclin D1, sequence (P24385 whole entry partner): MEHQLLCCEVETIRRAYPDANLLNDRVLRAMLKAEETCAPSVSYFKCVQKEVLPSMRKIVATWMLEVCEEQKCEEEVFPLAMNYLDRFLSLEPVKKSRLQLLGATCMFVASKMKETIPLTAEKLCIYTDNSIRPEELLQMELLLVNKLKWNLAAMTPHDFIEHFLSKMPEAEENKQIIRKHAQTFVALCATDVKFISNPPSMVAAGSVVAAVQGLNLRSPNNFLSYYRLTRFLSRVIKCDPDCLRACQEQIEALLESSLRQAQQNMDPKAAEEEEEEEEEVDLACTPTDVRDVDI
CDK6/Cyclin D3, sequence (Q00534 whole entry): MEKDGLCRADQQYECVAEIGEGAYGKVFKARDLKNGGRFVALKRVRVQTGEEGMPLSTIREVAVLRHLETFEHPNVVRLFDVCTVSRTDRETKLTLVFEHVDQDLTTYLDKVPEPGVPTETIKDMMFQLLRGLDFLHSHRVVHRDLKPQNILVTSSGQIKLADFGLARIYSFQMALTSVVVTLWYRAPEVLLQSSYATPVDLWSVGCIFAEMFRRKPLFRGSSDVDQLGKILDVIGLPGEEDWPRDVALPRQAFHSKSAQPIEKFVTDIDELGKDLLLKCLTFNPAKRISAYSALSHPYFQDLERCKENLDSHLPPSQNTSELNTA
CDK6/Cyclin D3, sequence (P30281 whole entry partner): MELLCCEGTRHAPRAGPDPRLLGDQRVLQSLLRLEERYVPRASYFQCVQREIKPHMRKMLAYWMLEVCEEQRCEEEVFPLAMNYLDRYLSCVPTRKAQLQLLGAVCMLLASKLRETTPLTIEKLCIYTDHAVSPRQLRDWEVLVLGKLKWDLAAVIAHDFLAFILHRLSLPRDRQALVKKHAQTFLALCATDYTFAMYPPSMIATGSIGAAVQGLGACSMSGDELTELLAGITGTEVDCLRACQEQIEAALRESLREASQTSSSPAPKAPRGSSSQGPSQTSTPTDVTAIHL

The IC50 is the concentration that gives 50% inhibition. For the molecule `CC(C)c1c([C@@H](C)N2CC[C@@H](F)C2)cnc2ccc(-c3nc(N[C@@H]4CCOC[C@H]4O)ncc3F)cc12` [Example 48, (3S,4R)-4-((5-fluoro-4-(3-((R)-1-((R)-3-fluoropyrrolidin-1-yl)ethyl)-4-isopropylquinolin-6-yl)pyrimidin-2-yl)amino)tetrahydro-2H-pyran-3-ol], the results for the IC50 in assay [1] and in assay [2] were 21 nM and 756 nM, respectively.
For `CC(C)c1c(CN2C[C@H]3C[C@@H]2CO3)cnc2ccc(-c3nc(N[C@@H]4CCOC[C@H]4O)ncc3F)cc12` [Example 49, (3S,4R)-4-((4-(3-(((1R,4R)-2-oxa-5-azabicyclo[2.2.1]heptan-5-yl)methyl)-4-isopropylquinolin-6-yl)-5-fluoropyrimidin-2-yl)amino)tetrahydro-2H-pyran-3-ol] the same measures were 14 nM and 392 nM.
Taken in the same sequence, the figures for `CC(C)c1c(C2(O)CCCC2)cnc2ccc(-c3nc(N[C@@H]4CCOC[C@H]4O)ncc3F)cc12` [Example 50, (3S,4R)-4-((5-fluoro-4-(3-(1-hydroxycyclopentyl)-4-isopropylquinolin-6-yl)pyrimidin-2-yl)amino)tetrahydro-2H-pyran-3-ol] were 4.4 nM and 185 nM.
Taken in the same sequence, the figures for `CC(C)c1c(CO)cnc2c(F)cc(-c3nc(N[C@@H]4CCOC[C@H]4O)ncc3F)cc12` [Example 51, (3S,4R)-4-((5-fluoro-4-(8-fluoro-3-(hydroxymethyl)-4-isopropylquinolin-6-yl)pyrimidin-2-yl)amino)tetrahydro-2H-pyran-3-ol] were 4.2 nM and 67.2 nM.
In the case of `CC(C)c1c(CNC2CC(F)(F)C2)cnc2c(F)cc(-c3nc(N[C@@H]4CCOC[C@H]4O)ncc3F)cc12` [Example 52, (3S,4R)-4-((4-(3-(((3,3-difluorocyclobutyl)amino)methyl)-8-fluoro-4-isopropylquinolin-6-yl)-5-fluoropyrimidin-2-yl)amino)tetrahydro-2H-pyran-3-ol], the IC50 is 10 nM in assay [1] and 240 nM in assay [2].
For the molecule `CC(C)c1c(CN[C@@H]2CCCOC2)cnc2c(F)cc(-c3nc(N[C@@H]4CCOC[C@H]4O)ncc3F)cc12` [Example 53, (3S,4R)-4-((5-fluoro-4-(8-fluoro-4-isopropyl-3-((((R)-tetrahydro-2H-pyran-3-yl)amino)methyl)quinolin-6-yl)pyrimidin-2-yl)amino)tetrahydro-2H-pyran-3-ol], the IC50 in assay [1] was determined as 12 nM; in assay [2], 348 nM.
As for `CC(C)c1c(CN2C[C@@H](O)[C@H](F)C2)cnc2ccc(-c3nc(N[C@@H]4CCOC[C@H]4O)ncc3F)cc12` [Example 54, (3R,4R)-4-fluoro-1-((6-(5-fluoro-2-(((3S,4R)-3-hydroxytetrahydro-2H-pyran-4-yl)amino)pyrimidin-4-yl)-4-isopropylquinolin-3-yl)methyl)pyrrolidin-3-ol], the IC50 came out at 19 nM in assay [1] and 361 nM in assay [2].
Taken in the same sequence, the figures for `CC(C)c1c([C@H](C)N)cnc2ccc(-c3nc(N[C@@H]4CCOC[C@H]4O)ncc3F)cc12` [Example 55, (3S,4R)-4-((4-(3-((S)-1-aminoethyl)-4-isopropylquinolin-6-yl)-5-fluoropyrimidin-2-yl)amino)tetrahydro-2H-pyran-3-ol] were 34 nM and 1090 nM.
Taken in the same sequence, the figures for `CC(C)c1c([C@@H](C)N)cnc2ccc(-c3nc(N[C@@H]4CCOC[C@H]4O)ncc3F)cc12` [Example 56, (3S,4R)-4-((4-(3-((R)-1-aminoethyl)-4-isopropylquinolin-6-yl)-5-fluoropyrimidin-2-yl)amino)tetrahydro-2H-pyran-3-ol] were 3.5 nM and 214 nM.
Taken in the same sequence, the figures for `CC(C)c1c(CN2CCC[C@H](O)C2)cnc2ccc(-c3nc(N[C@@H]4CCOC[C@H]4O)ncc3F)cc12` [Example 57, (S)-1-((6-(5-fluoro-2-(((3S,4R)-3-hydroxytetrahydro-2H-pyran-4-yl)amino)pyrimidin-4-yl)-4-isopropylquinolin-3-yl)methyl)piperidin-3-ol] were 18 nM and 486 nM.
Take `CC(C)c1c(CN2CCOC[C@H]2C)cnc2ccc(-c3nc(N[C@@H]4CCOC[C@H]4O)ncc3F)cc12` [Example 58, (3S,4R)-4-((5-fluoro-4-(4-isopropyl-3-(((R)-3-methylmorpholino)methyl)quinolin-6-yl)pyrimidin-2-yl)amino)tetrahydro-2H-pyran-3-ol]: the results for the IC50 in assay [1] and in assay [2] were 14 nM and 406 nM, respectively.
Taken in the same sequence, the figures for `CC(C)c1c(CNc2ccccn2)cnc2ccc(-c3nc(N[C@@H]4CCOC[C@H]4O)ncc3F)cc12` [Example 59, (3S,4R)-4-((5-fluoro-4-(4-isopropyl-3-((pyridin-2-ylamino)methyl)quinolin-6-yl)pyrimidin-2-yl)amino)tetrahydro-2H-pyran-3-ol] were 46 nM and 3590 nM.
Taken in the same sequence, the figures for `CC(C)c1c(CN2C3CCCC2CC(O)C3)cnc2ccc(-c3nc(N[C@@H]4CCOC[C@H]4O)ncc3F)cc12` (stereo partly drawn) [Example 60, (1R,3R,5S)-9-((6-(5-fluoro-2-(((3S,4R)-3-hydroxytetrahydro-2H-pyran-4-yl)amino)pyrimidin-4-yl)-4-isopropylquinolin-3-yl)methyl)-9-azabicyclo[3.3.1]nonan-3-ol] were 15 nM and 585 nM.
Taken in the same sequence, the figures for `CC(C)c1c(CN2CCC[C@H](C#N)C2)cnc2ccc(-c3nc(N[C@@H]4CCOC[C@H]4O)ncc3F)cc12` [Example 61, (S)-1-((6-(5-fluoro-2-(((3S,4R)-3-hydroxytetrahydro-2H-pyran-4-yl)amino)pyrimidin-4-yl)-4-isopropylquinolin-3-yl)methyl)piperidine-3-carbonitrile] were 8.7 nM and 426 nM.
Regarding `CC(C)c1c(CN2CCC[C@@H](C#N)C2)cnc2ccc(-c3nc(N[C@@H]4CCOC[C@H]4O)ncc3F)cc12` [Example 62, (R)-1-((6-(5-fluoro-2-(((3S,4R)-3-hydroxytetrahydro-2H-pyran-4-yl)amino)pyrimidin-4-yl)-4-isopropylquinolin-3-yl)methyl)piperidine-3-carbonitrile], the values for the IC50 in assay [1] and in assay [2] were 11 nM and 572 nM, respectively.
Regarding `CC(C)c1c(C(C)(C)O)cnc2c(F)cc(-c3nc(N[C@@H]4CCOC[C@H]4O)ncc3F)cc12` [Example 67, (3S,4R)-4-((5-fluoro-4-(8-fluoro-3-(2-hydroxypropan-2-yl)-4-isopropylquinolin-6-yl)pyrimidin-2-yl)amino)tetrahydro-2H-pyran-3-ol], the IC50 in assay [1] was 2.5 nM; in assay [2], 42.7 nM.
For `CC(C)c1c(CN2[C@H](C)COC[C@@H]2C)cnc2ccc(-c3nc(N[C@@H]4CCOC[C@H]4O)ncc3F)cc12` [Example 68] the same measures were 8.7 nM and 395 nM.
Taken in the same sequence, the figures for `CC(C)c1c(CN2[C@H](C)COC[C@H]2C)cnc2ccc(-c3nc(N[C@@H]4CCOC[C@H]4O)ncc3F)cc12` [Example 69, (3S,4R)-4-((4-(3-(((3R,5R)-3,5-dimethylmorpholino)methyl)-4-isopropylquinolin-6-yl)-5-fluoropyrimidin-2-yl)amino)tetrahydro-2H-pyran-3-ol] were 8.3 nM and 355 nM.
Taken in the same sequence, the figures for `CC(C)c1c(C(C)(C)O)cnc2cc(Cl)c(-c3nc(N[C@@H]4CCOC[C@H]4O)ncc3F)cc12` [Example 70, (3S,4R)-4-((4-(7-chloro-3-(2-hydroxypropan-2-yl)4-isopropylquinolin-6-yl)-5-fluoropyrimidin-2-yl)amino)tetrahydro-2H-pyran-3-ol] were 31 nM and 508 nM.
`CC(C)c1c(C(C)(C)O)cnc2cc(F)c(-c3nc(N[C@@H]4CCOC[C@H]4O)ncc3F)cc12` [Example 116, (3S,4R)-4-((5-fluoro-4-(7-fluoro-3-(2-hydroxypropan-2-yl)-4-isopropylquinolin-6-yl)pyrimidin-2-yl)amino)tetrahydro-2H-pyran-3-ol]: the IC50 came to 10.9 nM in assay [1] and 198 nM in assay [2].
For `CC(C)c1c(C(C)(C)O)cnc2c(F)cc(-c3nc(N[C@@H]4CCOC[C@H]4O)ncc3Cl)cc12` [Example 117, (3S,4R)-4-((5-chloro-4-(8-fluoro-3-(2-hydroxypropan-2-yl)-4-isopropylquinolin-6-yl)pyrimidin-2-yl)amino)tetrahydro-2H-pyran-3-ol] the same measures were 2.1 nM and 54 nM.
Taken in the same sequence, the figures for `Cc1c(-c2nc(N[C@@H]3CCOC[C@H]3O)ncc2F)ccc2ncc(CO)c(C(C)C)c12` [Example 120, (3S,4R)-4-((5-fluoro-4-(3-(hydroxymethyl)-4-isopropyl-5-methylquinolin-6-yl)pyrimidin-2-yl)amino)tetrahydro-2H-pyran-3-ol] were 23.5 nM and 149 nM.
